Assay results as given in patent publication US20200016136A1 (VIIV HEALTHCARE UK (NO. 5) LIMITED, priority 2017, published 2020).

Test system: NL-RLuc virus (recombinant NL4-3 HIV with Renilla Luciferase gene)
Assay: Inhibition of HIV replication (NL-RLuc virus in MT-2 cells, luciferase readout)
Type: cell-based, Human immunodeficiency virus (HIV)
Conditions: MT2, 120 h
Outline: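 MT-2 cells infected with NL4-3-derived virus carrying Renilla luciferase in place of part of nef, grown 5 days with serial compound dilutions in RPMI 1640/10% FBS. Virus growth read as luciferase expression. EC50 from median effect equation, at least 2 experiments.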

Structure (SMILES)	EC50 [nM]
Cc1nc(C)c([C@H](OC(C)(C)C)C(=O)O)c(N2CCC(C)(C)CC2)c1-c1ccc2c(c1)CCN(c1ncnc(N3CCC(CO)CC3)n1)C2 [Example 62, (S)-2-(tert-Butoxy)-2-(4-(4,4-dimethylpiperidin-1-yl)-5-(2-(4-(4-(hydroxymethyl)piperidin-1-yl)-1,3,5-triazin-2-yl)-1,2,3,4-tetrahydroisoquinolin-6-yl)-2,6-dimethylpyridin-3-yl)acetic Acid]	3
Cc1ncc(-c2ccc3c(c2)CCN(c2nccc(-c4cccnc4)n2)C3)c(N2CCC(C)(C)CC2)c1[C@H](OC(C)(C)C)C(=O)O [Example 146, (S)-2-(tert-Butoxy)-2-(4-(4,4-dimethylpiperidin-1-yl)-2-methyl-5-(2-(4-(pyridin-3-yl)pyrimidin-2-yl)-1,2,3,4-tetrahydroisoquinolin-6-yl)pyridin-3-yl)acetic Acid]	0.5
Cc1nc(C)c([C@H](OC(C)(C)C)C(=O)O)c(N2CCC(C)(C)CC2)c1-c1ccc2c(c1)CCN(c1cc(N3CCOCC3)c(F)cn1)C2 [Example 91, (S)-2-(tert-Butoxy)-2-(4-(4,4-dimethylpiperidin-1-yl)-5-(2-(5-fluoro-4-morpholinopyridin-2-yl)-1,2,3,4-tetrahydroisoquinolin-6-yl)-2,6-dimethylpyridin-3-yl)acetic Acid]	9
CC1(C)CCN(c2c(-c3ccc4c(c3)CCN(c3ncnc5c3oc3ccccc35)C4)c(CO)nc(Cl)c2[C@H](OC(C)(C)C)C(=O)O)CC1 [Example 95, (S)-2-(5-(2-(Benzofuro[3,2-d]pyrimidin-4-yl)-1,2,3,4-tetrahydroisoquinolin-6-yl)-2-chloro-4-(4,4-dimethylpiperidin-1-yl)-6-(hydroxymethyl)pyridin-3-yl)-2-(tert-butoxy)acetic acid]	1
Cc1nc(C)c([C@H](OC(C)(C)C)C(=O)O)c(N2CCC(C)(C)CC2)c1-c1ccc2c(c1)CCN(c1nccc(N3CCC(C)(C)CC3)n1)C2 [Example 24, (2S)-2-(tert-Butoxy)-2-[4-(4,4-dimethylpiperidin-1-yl)-5-{2-[4-(4,4-dimethylpiperidin-1-yl)pyrimidin-2-yl}-1,2,3,4-tetrahydroisoquinolin-6-yl}-2,6-dimethylpyridin-3-yl]acetic Acid]	8
Cc1nc(CN2CCC2)c(-c2ccc3c(c2)CCN(c2ncnc4c2oc2ccccc24)C3)c(N2CCC(C)(C)CC2)c1[C@H](OC(C)(C)C)C(=O)O [Example 160, (S)-2-(6-(Azetidin-1-ylmethyl)-5-(2-(benzofuro[3,2-d]pyrimidin-4-yl)-1,2,3,4-tetrahydroisoquinolin-6-yl)-4-(4,4-dimethylpiperidin-1-yl)-2-methylpyridin-3-yl)-2-(tert-butoxy)acetic Acid]	20
Cc1cccc(Cl)c1CN1CCc2cc(-c3c(O)nc(C)c([C@H](OC(C)(C)C)C(=O)O)c3N3CCC(C)(C)CC3)ccc2C1 [Example 1, (S)-2-(tert-Butoxy)-2-(5-(2-(2-chloro-6-methylbenzyl)-1,2,3,4-tetrahydroisoquinolin-6-yl)-4-(4,4-dimethylpiperidin-1-yl)-2-methyl-6-oxo-1,6-dihydropyridin-3-yl)acetic Acid]	10
COc1ccncc1-c1cc(C)nc(N2CCc3cc(-c4c(C)nc(C)c([C@H](OC(C)(C)C)C(=O)O)c4N4CCC(C)(C)CC4)ccc3C2)n1 [Example 107, (S)-2-(tert-Butoxy)-2-(4-(4,4-dimethylpiperidin-1-yl)-5-(2-(4-(4-methoxypyridin-3-yl)-6-methylpyrimidin-2-yl)-1,2,3,4-tetrahydroisoquinolin-6-yl)-2,6-dimethylpyridin-3-yl)acetic Acid]	1
Cc1nc(C)c([C@H](OC(C)(C)C)C(=O)O)c(N2CCC(C)(C)CC2)c1-c1ccc2c(c1)CCN(c1cc(N3CCC(O)CC3)ncn1)C2 [Example 125, (S)-2-(tert-Butoxy)-2-(4-(4,4-dimethylpiperidin-1-yl)-5-(2-(6-(4-hydroxypiperidin-1-yl)pyrimidin-4-yl)-1,2,3,4-tetrahydroisoquinolin-6-yl)-2,6-dimethylpyridin-3-yl)acetic Acid]	23
Cc1nc(C)c([C@H](OC(C)(C)C)C(=O)O)c(N2CCC(C)(C)CC2)c1-c1ccc2c(c1)CCN(c1ccnc(N3CCN(CCO)CC3)n1)C2 [Example 85, (S)-2-(tert-Butoxy)-2-(4-(4,4-dimethylpiperidin-1-yl)-5-(2-(2-(4-(2-hydroxyethyl)piperazin-1-yl)pyrimidin-4-yl)-1,2,3,4-tetrahydroisoquinolin-6-yl)-2,6-dimethylpyridin-3-yl)acetic Acid]	39
Cc1nc(C)c([C@H](OC(C)(C)C)C(=O)O)c(N2CCC(C)(C)CC2)c1-c1ccc2c(c1)CCN(c1ccnc(N3CCC(C(C)(C)O)CC3)n1)C2 [Example 71, (S)-2-(tert-Butoxy)-2-(4-(4,4-dimethylpiperidin-1-yl)-5-(2-(2-(4-(2-hydroxypropan-2-yl)piperidin-1-yl)pyrimidin-4-yl)-1,2,3,4-tetrahydroisoquinolin-6-yl)-2,6-dimethylpyridin-3-yl)acetic Acid]	4
Cc1nc(C)c([C@H](OC(C)(C)C)C(=O)O)c(N2CCC(C)(C)CC2)c1-c1ccc2c(c1)CCN(c1cc(N3CCOCC3)ccn1)C2 [Example 83, (S)-2-(tert-Butoxy)-2-(4-(4,4-dimethylpiperidin-1-yl)-2,6-dimethyl-5-(2-(4-morpholinopyridin-2-yl)-1,2,3,4-tetrahydroisoquinolin-6-yl)pyridin-3-yl)acetic Acid]	5
Cc1cccc(Cl)c1CN1CCc2cc(-c3c(CNCCCCc4ccccc4)nc(C)c([C@H](OC(C)(C)C)C(=O)O)c3N3CCC(C)(C)CC3)ccc2C1 [Example 155, (S)-2-(tert-Butoxy)-2-(5-(2-(2-chloro-6-methylbenzyl)-1,2,3,4-tetrahydroisoquinolin-6-yl)-4-(4,4-dimethylpiperidin-1-yl)-2-methyl-6-(((4-phenylbutyl)amino)methyl)pyridin-3-yl)acetic Acid]	55
Cc1cccc(Cl)c1CN1CCc2cc(-c3c(NCc4ccn[nH]4)nc(C)c([C@H](OC(C)(C)C)C(=O)O)c3N3CCC(C)(C)CC3)ccc2C1 [Example 6, (S)-2-(6-(((1H-Pyrazol-5-yl)methyl)amino)-5-(2-(2-chloro-6-methylbenzyl)-1,2,3,4-tetrahydroisoquinolin-6-yl)-4-(4,4-dimethylpiperidin-1-yl)-2-methylpyridin-3-yl)-2-(tert-butoxy)acetic Acid]	18
CC1(C)CCN(c2c(-c3ccc4c(c3)CCN(c3nccc(N5CCOCC5)n3)C4)c(CO)nc(Cl)c2[C@H](OC(C)(C)C)C(=O)O)CC1 [Example 151, (S)-2-(tert-Butoxy)-2-(2-chloro-4-(4,4-dimethylpiperidin-1-yl)-6-(hydroxymethyl)-5-(2-(4-morpholinopyrimidin-2-yl)-1,2,3,4-tetrahydroisoquinolin-6-yl)pyridin-3-yl)acetic Acid]	2
Cc1nc(C)c([C@H](OC(C)(C)C)C(=O)O)c(N2CCC(C)(C)CC2)c1-c1ccc2c(c1)CCN(c1ccnc(N3C4CCC3CN(C)C4)n1)C2 [Example 42, (2S)-2-(tert-Butoxy)-2-[4-(4,4-dimethylpiperidin-1-yl)-2,6-dimethyl-5-[2-(2-{3-methyl-3,8-diazabicyclo[3.2.1]octan-8-yl}pyrimidin-4-yl)-1,2,3,4-tetrahydroisoquinolin-6-yl]pyridin-3-yl]acetic Acid]	4
